Source: patent US20090176776A1, “SMALL MOLECULE INHIBITORS OF HIV-1 CAPSID ASSEMBLY” (UNIVERSITY OF ALABAMA AT BIRMINGHAM, priority 2005, published 2009)

Tests used:
[1] = test system: HIV-1NL43; experiment: Anti-HIV assay (single round), p24 production by pNL43-transfected cells (ELISA); type: cell-based; settings: p24 in supernatant of NL43-transfected 293T cells, 72 hours; read-out: p24 50%
Protocol: (§1) Anti-HIV Assays (Single Round). The inhibitory effect of the compounds on virus production and infectivity were determined by measuring the level of p24 produced in the presence of various concentrations of compounds from HEK-293 cells transiently transfected with pNL43 and by titering the virus on TZM-b1 cells. Briefly, 2.5×10^5 HEK-293 cells/ml were transfected with pNL43 using FuGene 6. Four hours post transfection the cells were plated in 96-well plates containing 100 μl of various concentrations of compounds (0-75 μM or 0-300 μM for mock transfected cells) in triplicate. At 72-hours post transfection virus supernatant was collected and stored at −80° C. until analysis. The level of p24 produced at each compound concentration was determined relative to the level produced in the presence of the DMSO only controls using HIV-1 p24 enzyme-linked immunosorbent assay (ELISA) (Beckman-Coulter). To determine the infectivity of the virus produced TZM-b1 cells were plated at 1×10^5 cells/ml in 100 μL in 96-well plates overnight. The next day, the media was replaced with 75 μL DMEM supplemented with 1% FBS, 1× PSG and 40 μg/ml DEAE Dextran and 25 μL of viral supernatant from the HEK-293 cells was added to each well. Three hours later 100 μL of DMEM with 7% FBS was added to each well. Two days after infection the cells were lysed and the level of luciferase expression was determined using the Bright-Glo assay.
(§2) FIGS. 12-18 show the anti-HIV assays for the examples of chemical compounds used according to the invention. After in-vitro assay, the chemical compounds in FIGS. 12-18 were selected for screening for cell viability and toxicity. Jurkat cells assay was used as screening assay. In Jurkat cells assay, JLTRG-R5 cells were used as Indicator cells and MOLT4 cells as Producer cells of NL43 and BAL virus. 96 chemical compounds were plated at seven different concentration from 75 μM to 0 μM at three-fold serial dilutions in 384 well plate. After five days, GFP expression was read. Cell viability was monitored with Alamar Blue assay. Luc M7 assay was designed to measure inhibitory activity of the chemical compounds to viral replication. After infection of cells with YU2 virus, plate cells in 96-well plate in the presence of six concentration of compounds in DMSO. At day 6, the number of cells in wells were read with Cell Titer Glo kit or by counting the number of cells infected with Bright Glo kit. 293T cells assay was designed to determine the toxicity. 293T cells were transfected with NL43. After four hours, transfected cells were plated in 96-well plate in DMSO and 2 μM Indinavir. 72 hours later, viral supernatant was collected and plated on JC53BL. Luciferase expression was measure after two days and p24 analysis was conducted with 1:1000 and 1:2000 dilutions.

[2] = MTS score (Table 1; method not described); type: cell-based
[3] = test system: HIV-1NL43; experiment: Anti-HIV assay (single round), infectivity of virus produced, titered on TZM-b1 cells; type: cell-based; settings: virus from NL43-transfected 293T cells, 72 hours; luciferase after two days; read-out: Infectivity 50%
Protocol: as §1, §2

[4] = biological target: N-terminal domain of the CA protein (Human immunodeficiency virus type 1 group M subtype B, UniProt P12493); settings: 1 mM compound; peaks at 5.5 ppm and 8 ppm
Excerpt: (§3) The STD-NMR spectroscopy is an extremely powerful and sensitive technique to detect and identify the binding of low molecular weight (MW) ligands specific to a target protein of interest. […] This technique exploits the transfer of radio frequency saturation of the proton magnetization on the large protein to the low MW ligand during the brief period it resides within the binding pocket of the protein, before it is released into solution. It also exploits the large differences in the correlation times of the interacting molecules.

[5] = biological target: C-terminal domain of the CA protein (Human immunodeficiency virus type 1 group M subtype B, UniProt P12493); settings: 1 mM compound, 0.02 mM protein domain; peaks at 5.5 ppm and 8 ppm
Excerpt: as §3

[6] = test system: 293T cells; experiment: Toxicity in 293T cells; type: cell-based, human; design: unit not given beside the values
Protocol: as §1, §2

Cc1ncc(C[n+]2csc(CCOC(=O)C3C4CC5CC(C4)CC3C5)c2C)c(N)n1.Cl.[Cl-] (stereo not drawn) [Compound 26]
IC50 [1]: 60.2 µM | MTS AVG 4 (No Effect) ([2]; average of the MTS scores at 10, 30 and 100 μM): 4.000 | MTS 10 μM ([2]; score at nominal 10 μM, 4 = No Effect): 4 | MTS 30 μM ([2]; score at nominal 30 μM, 4 = No Effect): 4 | MTS 100 μM ([2]; score at nominal 100 μM, 4 = No Effect): 4 | IC50 [3]: 17.6 µM | binding to the NTD domain (STD-NMR) [4]: binds to the NTD domain | binding to the CTD domain (STD-NMR) [5]: binding of the chemical compound 26 to the CTD domain is clearly indicated | TC50% [6]: 193
